ChEMBL document CHEMBL4196233, “Ribosome-Templated Azide-Alkyne Cycloadditions Using Resistant Bacteria as Reaction Vessels: in Cellulo Click Chemistry” (2018)
≈ marks a conversion by molar mass, not a printed value.

The compounds below were run on Staphylococcus aureus (assay: Antimicrobial activity against Staphylococcus aureus UCN18 measured after 18 hrs). Settings: UCN18, 18 h.
Format: functional

Row | SMILES | MIC
1 | CC[C@H]1OC(=O)[C@@](C)(F)C(=O)[C@H](C)[C@@H](O[C@@H]2O[C@H](C)C[C@H](N(C)C)[C@H]2O)[C@](C)(OC)C[C@@H](C)C(=O)[C@H](C)[C@H]2N(CCCCn3cc(-c4ccc(N(C)C)cc4)nn3)C(=O)O[C@]12C | 32 µg/mL (≈ 36.7 µM)
2 | CC[C@H]1OC(=O)[C@@](C)(F)C(=O)[C@H](C)[C@@H](O[C@@H]2O[C@H](C)C[C@H](N(C)C)[C@H]2O)[C@](C)(OC)C[C@@H](C)C(=O)[C@H](C)[C@H]2N(CCCCn3cc(-c4cccnc4)nn3)C(=O)O[C@]12C | 16 µg/mL (≈ 19.3 µM)
3 | CC[C@H]1OC(=O)[C@@](C)(F)C(=O)[C@H](C)[C@@H](O[C@@H]2O[C@H](C)C[C@H](N(C)C)[C@H]2O)[C@](C)(OC)C[C@@H](C)C(=O)[C@H](C)[C@H]2N(CCCCn3cc(C(O)(CC)CC)nn3)C(=O)O[C@]12C | 128 µg/mL (≈ 152 µM)
4 | CC[C@H]1OC(=O)[C@@](C)(F)C(=O)[C@H](C)[C@@H](O[C@@H]2O[C@H](C)C[C@H](N(C)C)[C@H]2O)[C@](C)(OC)C[C@@H](C)C(=O)[C@H](C)[C@H]2N(CCCCn3cc(-c4cccc(C(F)(F)F)c4)nn3)C(=O)O[C@]12C | 32 µg/mL (≈ 35.6 µM)
5 | CC[C@H]1OC(=O)[C@@](C)(F)C(=O)[C@H](C)[C@@H](O[C@@H]2O[C@H](C)C[C@H](N(C)C)[C@H]2O)[C@](C)(OC)C[C@@H](C)C(=O)[C@H](C)[C@H]2N(CCCCn3cc(COc4ccccc4)nn3)C(=O)O[C@]12C | 4 µg/mL (≈ 4.65 µM)
6 | CC[C@H]1OC(=O)[C@@](C)(F)C(=O)[C@H](C)[C@@H](O[C@@H]2O[C@H](C)C[C@H](N(C)C)[C@H]2O)[C@](C)(OC)C[C@@H](C)C(=O)[C@H](C)[C@H]2N(CCCCn3cc(CN4CCNCC4)nn3)C(=O)O[C@]12C | 128 µg/mL (≈ 150 µM)
7 | CC[C@H]1OC(=O)[C@@](C)(F)C(=O)[C@H](C)[C@@H](O[C@@H]2O[C@H](C)C[C@H](N(C)C)[C@H]2O)[C@](C)(OC)C[C@@H](C)C(=O)[C@H](C)[C@H]2N(CCCCn3cc(-c4ccc(OC)cc4)nn3)C(=O)O[C@]12C | 32 µg/mL (≈ 37.2 µM)
8 | CC[C@H]1OC(=O)[C@@](C)(F)C(=O)[C@H](C)[C@@H](O[C@@H]2O[C@H](C)C[C@H](N(C)C)[C@H]2O)[C@](C)(OC)C[C@@H](C)C(=O)[C@H](C)[C@H]2N(CCCCN=[N+]=[N-])C(=O)O[C@]12C | 256 µg/mL (≈ 352 µM)

Now from value to compound:

Row | MIC | SMILES
9 | 16 µg/mL (≈ 18 µM) | CC[C@H]1OC(=O)[C@@](C)(F)C(=O)[C@H](C)[C@@H](O[C@@H]2O[C@H](C)C[C@H](N(C)C)[C@H]2O)[C@](C)(OC)C[C@@H](C)C(=O)[C@H](C)[C@H]2N(CCCCn3cc(COc4ccc(OC)cc4)nn3)C(=O)O[C@]12C
10 | 8 µg/mL (≈ 9.43 µM) | CC[C@H]1OC(=O)[C@@](C)(F)C(=O)[C@H](C)[C@@H](O[C@@H]2O[C@H](C)C[C@H](N(C)C)[C@H]2O)[C@](C)(OC)C[C@@H](C)C(=O)[C@H](C)[C@H]2N(CCCCn3cc(-c4ccccc4F)nn3)C(=O)O[C@]12C
11 | 8 µg/mL (≈ 9.46 µM) | CC[C@H]1OC(=O)[C@@](C)(F)C(=O)[C@H](C)[C@@H](O[C@@H]2O[C@H](C)C[C@H](N(C)C)[C@H]2O)[C@](C)(OC)C[C@@H](C)C(=O)[C@H](C)[C@H]2N(CCCCn3cc(-c4cccc(O)c4)nn3)C(=O)O[C@]12C
12 | 2 µg/mL (≈ 2.37 µM) | CC[C@H]1OC(=O)[C@@](C)(F)C(=O)[C@H](C)[C@@H](O[C@@H]2O[C@H](C)C[C@H](N(C)C)[C@H]2O)[C@](C)(OC)C[C@@H](C)C(=O)[C@H](C)[C@H]2N(CCCCn3cc(-c4cccc(N)c4)nn3)C(=O)O[C@]12C [SOLITHROMYCIN]
